The target of one experiment is T1, human JAK1 (Homo sapiens, UniProt P23458).
T1 construct: human JAK1 (a.a. 837-1142); made in house; host or cells: insect cells (baculovirus)
Kind of experiment: In vitro JAK kinase assay (Example G, HTRF), JAK1. Type of experiment: biochemical. Conditions: 1 mM ATP. For orientation: Time-resolved FRET reads energy transfer from a long-lived donor to a nearby acceptor.

The target in the next experiment is T2, human JAK2 (Homo sapiens, UniProt O60674).
T2 construct: JAK2 (a.a. 828-1132); made in house; host or cells: insect cells (baculovirus)
T2 sequence (O60674 828-1132): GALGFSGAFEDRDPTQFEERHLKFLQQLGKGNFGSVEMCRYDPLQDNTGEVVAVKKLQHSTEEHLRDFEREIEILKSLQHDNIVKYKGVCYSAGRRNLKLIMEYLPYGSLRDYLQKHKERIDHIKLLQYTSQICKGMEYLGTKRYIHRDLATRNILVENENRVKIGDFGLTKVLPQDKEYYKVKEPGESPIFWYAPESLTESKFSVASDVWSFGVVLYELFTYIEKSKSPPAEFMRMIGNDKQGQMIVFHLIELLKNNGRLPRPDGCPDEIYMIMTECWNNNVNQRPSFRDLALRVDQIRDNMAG
The experiment in a line: In vitro JAK kinase assay (Example G, HTRF), JAK2. Type of experiment: biochemical. The conditions noted are these: ratio of IC50s JAK2 over JAK1, 1 mM ATP.

Among the data in US20190202840A1, “SALTS OF (S)-7-(1-(9H-PURIN-6-YLAMINO)ETHYL)-6-(3-FLUOROPHENYL)-3-METHYL-5H-THIAZOLO[3,2-A]PYRIMIDIN-5-ONE” (Incyte Corporation, priority 2015, published 2019) are IC50 and JAK2/JAK1 values, retold here.

T1 sequence (P23458 849-1154): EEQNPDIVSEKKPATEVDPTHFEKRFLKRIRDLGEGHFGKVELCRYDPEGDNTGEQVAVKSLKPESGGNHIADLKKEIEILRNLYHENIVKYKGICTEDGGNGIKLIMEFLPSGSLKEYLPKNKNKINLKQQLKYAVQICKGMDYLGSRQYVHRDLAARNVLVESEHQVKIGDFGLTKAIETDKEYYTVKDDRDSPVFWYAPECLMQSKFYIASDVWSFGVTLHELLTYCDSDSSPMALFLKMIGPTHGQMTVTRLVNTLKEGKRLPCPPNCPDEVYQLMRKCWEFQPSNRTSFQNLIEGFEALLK

Turning to `N#CCC1(n2cc(-c3ncnc4[nH]ccc34)cn2)CN([C@H]2CC[C@@H](Oc3cc(CN4CC[C@H](O)C4)cc(C(F)(F)F)n3)CC2)C1` [Compound 22, {1-(cis-4-{[4-{[(3S)-3-hydroxypyrrolidin-1-yl]methyl}-6-(trifluoromethyl)pyridin-2-yl]oxy}cyclohexyl)-3-[4-(7H-pyrrolo[2,3-d]pyrimidin-4-yl)-1H-pyrazol-1-yl]azetidin-3-yl}acetonitrile], at human JAK1, the IC50 (as a rule, the concentration at which inhibition is half-maximal) was below 10 nM. In addition, the JAK2/JAK1 at human JAK2 was above 10.
At human JAK1, `N#CCC(CN1CCN(C(=O)c2ccc(C#N)cc2F)CC1)n1ccc(-c2ncnc3[nH]ccc23)c1` (stereo not drawn) [Compound 6, 4-[(4-{3-cyano-2-[3-(7H-pyrrolo[2,3-d]pyrimidin-4-yl)-1H-pyrrol-1-yl]propyl}piperazin-1-yl)carbonyl]-3-fluorobenzonitrile] yielded an IC50 below 10 nM. Moreover, the JAK2/JAK1 at human JAK2 is recorded as above 10.
Consider `N#CCC1(n2cc(-c3ncnc4[nH]ccc34)cn2)CN(C2CCN(C(=O)c3ccnc(C(F)(F)F)c3F)CC2)C1` [Compound 7, {1-{1-[3-Fluoro-2-(trifluoromethyl)isonicotinoyl]piperidin-4-yl}-3-[4-(7H-pyrrolo[2,3-d]pyrimidin-4-yl)-1H-pyrazol-1-yl]azetidin-3-yl}acetonitrile], for which the IC50 at human JAK1 was below 10 nM. In addition, on human JAK2, the JAK2/JAK1 is above 10.
`C[C@H](O)CNCc1cc(OC2CCN([C@H]3C[C@](CC#N)(n4cc(-c5ncnc6[nH]ccc56)cn4)C3)CC2)nc(C(F)(F)F)c1` [Compound 25, {trans-3-(4-{[4-({[(2S)-2-hydroxypropyl]amino}methyl)-6-(trifluoromethyl)pyridin-2-yl]oxy}piperidin-1-yl)-1-[4-(7H-pyrrolo[2,3-d]pyrimidin-4-yl)-1H-pyrazol-1-yl]cyclobutyl}acetonitrile] gave an IC50 against human JAK1 below 10 nM. For the same compound, the JAK2/JAK1 on human JAK2 is given as above 10.
As for `N#CC[C@]1(n2cc(-c3ncnc4[nH]ccc34)cn2)C[C@H](N2CCN(C(=O)c3ccnc(C(F)(F)F)n3)CC2)C1` [Compound 10, [trans-1-[4-(7H-pyrrolo[2,3-d]pyrimidin-4-yl)-1H-pyrazol-1-yl]-3-(4-{[2-(trifluoromethyl)pyrimidin-4-yl]carbonyl}piperazin-1-yl)cyclobutyl]acetonitrile], the IC50 against human JAK1 is below 10 nM. The JAK2/JAK1 on human JAK2 was above 10.
Compound `N#CC[C@]1(n2cc(-c3ncnc4[nH]ccc34)cn2)C[C@H](N2CCC(Oc3cc(CN4CC(O)C4)cc(C(F)(F)F)n3)CC2)C1` [Compound 11, {trans-3-(4-{[4-[(3-hydroxyazetidin-1-yl)methyl]-6-(trifluoromethyl)pyridin-2-yl]oxy}piperidin-1-yl)-1-[4-(7H-pyrrolo[2,3-d]pyrimidin-4-yl)-1H-pyrazol-1-yl]cyclobutyl}acetonitrile] returned an IC50 at human JAK1 below 10 nM. Further, at human JAK2, the JAK2/JAK1 was above 10.
In turn, `C[C@@H](O)c1nc2cnc3ccsc3c2n1[C@H]1CC[C@H](CC#N)OC1` [Compound 1, ((2R,5S)-5-{2-[(1R)-1-hydroxyethyl]-1H-imidazo[4,5-d]thieno[3,2-b]pyridin-1-yl}tetrahydro-2H-pyran-2-yl)acetonitrile] displayed an IC50 against human JAK1 below 100 nM. Also, the JAK2/JAK1 on human JAK2 is given as above 10.
On human JAK1, `C[C@@H](CO)NCc1cc(OC2CCN([C@H]3C[C@](CC#N)(n4cc(-c5ncnc6[nH]ccc56)cn4)C3)CC2)nc(C(F)(F)F)c1` [Compound 23, {trans-3-(4-{[4-({[(1S)-2-hydroxy-1-methylethyl]amino}methyl)-6-(trifluoromethyl)pyridin-2-yl]oxy}piperidin-1-yl)-1-[4-(7H-pyrrolo[2,3-d]pyrimidin-4-yl)-1H-pyrazol-1-yl]cyclobutyl}acetonitrile] displayed an IC50 below 10 nM. Moreover, the JAK2/JAK1 on human JAK2 is given as above 10.
Regarding `C[C@@H](O)CNCc1cc(OC2CCN([C@H]3C[C@](CC#N)(n4cc(-c5ncnc6[nH]ccc56)cn4)C3)CC2)nc(C(F)(F)F)c1` [Compound 24, {trans-3-(4-{[4-({[(2R)-2-hydroxypropyl]amino}methyl)-6-(trifluoromethyl)pyridin-2-yl]oxy}piperidin-1-yl)1-[4-(7H-pyrrolo[2,3-d]pyrimidin-4-yl)-1H-pyrazol-1-yl]cyclobutyl}acetonitrile], the IC50 against human JAK1 was below 10 nM. Besides, on human JAK2, the JAK2/JAK1 is reported as above 10.
For the compound `N#CCC1(n2cc(-c3ncnc4[nH]ccc34)cn2)CN(C2CCN(C(=O)c3ccnc(C(F)(F)F)n3)CC2)C1` [Compound 9, [3-[4-(7H-pyrrolo[2,3-d]pyrimidin-4-yl)-1H-pyrazol-1-yl]-1-(1-{[2-(trifluoromethyl)pyrimidin-4-yl]carbonyl}piperidin-4-yl)azetidin-3-yl]acetonitrile], the IC50 against human JAK1 was below 10 nM. In addition, the JAK2/JAK1 on human JAK2 is listed as above 10.
For `N#CC[C@]1(n2cc(-c3ncnc4[nH]ccc34)cn2)C[C@H](N2CCC(Oc3cc(CN4CCC[C@H]4CO)cc(C(F)(F)F)n3)CC2)C1` [Compound 12, {trans-3-(4-{[4-{[(2S)-2-(hydroxymethyl)pyrrolidin-1-yl]methyl}-6-(trifluoromethyl)pyridin-2-yl]oxy}piperidin-1-yl)-1-[4-(7H-pyrrolo[2,3-d]pyrimidin-4-yl)-1H-pyrazol-1-yl]cyclobutyl}acetonitrile], the IC50 against human JAK1 was below 10 nM. Besides, the JAK2/JAK1 on human JAK2 was above 10.
Taken in the same sequence, the figures for `N#CCC1(n2cc(-c3ncnc4[nH]ccc34)cn2)CN(C2CCN(C(=O)Nc3ccc(F)cc3C(F)(F)F)CC2)C1` [Compound 8, 4-{3-(Cyanomethyl)-3-[4-(7H-pyrrolo[2,3-d]pyrimidin-4-yl)-1H-pyrazol-1-yl]azetidin-1-yl}-N-[4-fluoro-2-(trifluoromethyl)phenyl]piperidine-1-carboxamide] were below 10 nM and above 10.
At human JAK1, `N#CC[C@]1(n2cc(-c3ncnc4[nH]ccc34)cn2)C[C@H](N2CCC(Oc3cc(CN4CCC[C@@H]4CO)cc(C(F)(F)F)n3)CC2)C1` [Compound 13, {trans-3-(4-{[4-{[(2R)-2-(hydroxymethyl)pyrrolidin-1-yl]methyl}-6-(trifluoromethyl)pyridin-2-yl]oxy}piperidin-1-yl)-1-[4-(7H-pyrrolo[2,3-d]pyrimidin-4-yl)-1H-pyrazol-1-yl]cyclobutyl}acetonitrile] gave an IC50 below 10 nM. In addition, on human JAK2, the JAK2/JAK1 is above 10.
Regarding `C[C@H](NC(=O)c1cc(F)c(N2CC(CC#N)(n3cc(-c4ncnc5[nH]ccc45)cn3)C2)cc1F)C(F)(F)F` [Compound 16, 4-{3-(cyanomethyl)-3-[4-(7H-pyrrolo[2,3-d]pyrimidin-4-yl)-1H-pyrazol-1-yl]azetidin-1-yl}-2,5-difluoro-N-[(1S)-2,2,2-trifluoro-1-methylethyl]benzamide], on human JAK1, the concentration for half-maximal inhibition (IC50) is below 10 nM. For the same compound, on human JAK2, the JAK2/JAK1 is on record as above 10.
In the case of `N#CCC(C1CCN(c2cccc(Cl)n2)C1)n1cc(-c2ncnc3[nH]ccc23)cn1` (single isomer, unassigned) [Compound 3, 3-[1-(6-chloropyridin-2-yl)pyrrolidin-3-yl]-3-[4-(7H-pyrrolo[2,3-d]pyrimidin-4-yl)-1H-pyrazol-1-yl]propanenitrile], on human JAK1, the IC50 was below 10 nM. At human JAK2, the JAK2/JAK1 is given as above 10.
The compound `N#CCC(CN1CCN(C(=O)c2ccc(C#N)cc2F)CC1)n1cc(-c2ncnc3[nH]ccc23)cn1` (stereo not drawn) [Compound 5, 4-[(4-{3-cyano-2-[4-(7H-pyrrolo[2,3-d]pyrimidin-4-yl)-1H-pyrazol-1-yl]propyl}piperazin-1-yl)carbonyl]-3-fluorobenzonitrile] displayed an IC50 against human JAK1 below 10 nM. In addition, the JAK2/JAK1 at human JAK2 is above 10.
As for `CC(C)(O)c1cc(O[C@H]2CC[C@@H](N3CC(CC#N)(n4cc(-c5ncnc6[nH]ccc56)cn4)C3)CC2)nc(C(F)(F)F)c1` [Compound 20, {1-(cis-4-{[4-(1-hydroxy-1-methylethyl)-6-(trifluoromethyl)pyridin-2-yl]oxy}cyclohexyl)-3-[4-(7H-pyrrolo[2,3-d]pyrimidin-4-yl)-1H-pyrazol-1-yl]azetidin-3-yl}acetonitrile], at human JAK1, the IC50 is below 10 nM. For the same compound, the JAK2/JAK1 at human JAK2 is given as above 10.
Regarding `CCNCc1cc(O[C@H]2CC[C@@H](N3CC(CC#N)(n4cc(-c5ncnc6[nH]ccc56)cn4)C3)CC2)nc(C(F)(F)F)c1` [Compound 19, {1-(cis-4-{[4-[(ethylamino)methyl]-6-(trifluoromethyl)pyridin-2-yl]oxy}cyclohexyl)-3-[4-(7H-pyrrolo[2,3-d]pyrimidin-4-yl)-1H-pyrazol-1-yl]azetidin-3-yl}acetonitrile], the IC50 on human JAK1 was below 10 nM. Besides, on human JAK2, the JAK2/JAK1 is listed as above 10.
In the case of `N#CCC(C1CCN(c2nc3cccnc3o2)C1)n1cc(-c2ncnc3[nH]ccc23)cn1` (stereo not drawn) [Compound 4, 3-(1-[1,3]oxazolo[5,4-b]pyridin-2-ylpyrrolidin-3-yl)-3-[4-(7H-pyrrolo[2,3-d]pyrimidin-4-yl)-1H-pyrazol-1-yl]propanenitrile], the IC50 on human JAK1 was below 10 nM. In addition, the JAK2/JAK1 at human JAK2 is above 10.
Compound `N#CCC1(n2cc(-c3ncnc4[nH]ccc34)cn2)CN([C@H]2CC[C@@H](Oc3cc(CN4CC[C@@H](O)C4)cc(C(F)(F)F)n3)CC2)C1` [Compound 21, {1-(cis-4-{[4-{[(3R)-3-hydroxypyrrolidin-1-yl]methyl}-6-(trifluoromethyl)pyridin-2-yl]oxy}cyclohexyl)-3-[4-(7H-pyrrolo[2,3-d]pyrimidin-4-yl)-1H-pyrazol-1-yl]azetidin-3-yl}acetonitrile] showed an IC50 at human JAK1 below 10 nM. Also, the JAK2/JAK1 on human JAK2 was above 10.
Take `N#CCC1(n2cc(-c3ncnc4[nH]ccc34)cn2)CN([C@H]2CC[C@@H](Oc3cc(CCO)nc(C(F)(F)F)n3)CC2)C1` [Compound 18, {1-(cis-4-{[6-(2-hydroxyethyl)-2-(trifluoromethyl)pyrimidin-4-yl]oxy}cyclohexyl)-3-[4-(7H-pyrrolo[2,3-d]pyrimidin-4-yl)-1H-pyrazol-1-yl]azetidin-3-yl}acetonitrile]: at human JAK1, the IC50 was below 10 nM. In addition, the JAK2/JAK1 at human JAK2 was above 10.
